# Laboratory results reported in patent US20130136722A1, “Methods of Ex Vivo Expansion of Blood Progenitor Cells, and Generation of Composite Grafts” (The Board of Trustees of The University of Illinois, priority 2011, published 2013).
# “And” between values parts separate entries of the source, which are not always exact repeats. Equal values may be shown once.
# Legend:
# [1] = tested on: cord blood-derived CD34+CD90+ cells; assay: Ex vivo expansion culture of cord blood CD34+ cells with chromatin modifying agents, flow cytometry for CD34/CD90; format: cell-based, human
# Source text: Freshly collected human CB was obtained from the New York Blood Center (New York, N.Y.) according to Institutional Review Board guidelines. Low density CB cells (<1.077 g/ml) were obtained by density centrifugation on Ficoll-Paque PLUS (GE Healthcare Bio-Sciences AB, Uppsala, Sweden), from which CD34^+ cells were immunomagnetically isolated by the MACS CD34 progenitor isolation kit (Miltenyi Biotech, Inc., Auburn, Calif.) as described in Araki et al., 2009, Exp Hematol. 37: 1084-1095). The purity of isolated CD34^+ cells routinely ranged from 90-99%.
# CD34^+ cell expansion culture with or without CMA was carried out as described (Araki et al., 2009, Id.; Araki et al. 2006, Exp Hematol. 34: 140-149; Araki et al, 2007, Blood 109: 3570-3578.). All other HDAC inhibitors including 1 mM VPA (Sigma), TSA (5 ng/mL), NA (5 mM) or 5 μM of Suberoylanilide hydroxamic acid (SAHA; BioVision, Inc. Mountain View, Calif.) was added twice at 0 hr and after changing media at 48 hrs of culture. HDAC inhibitors were added only once (48 hr) when used in combination with a DNMT inhibitor as described (Araki et al., 2009, Id.; Araki et al., 2006, Id.; Himburg et al., 2010, Nat. Med. 16: 475-482).
# Flow cytometric analysis was carried out as described (Araki et al., 2009, Id.; Araki et al. 2006, Id.; Araki et al, 2007, Id.). All antibodies were purchased from BD Bioscience (San Jose, Calif.). All analyses were paired with the corresponding matched isotype control and at least 10,000 live cells were acquired for each analysis (CellQuest software, Becton Dickinson).
# In order to compare the effects of various chromatin modifying agents (CMAs) on the degree of expansion of cord blood-derived, primitive subpopulation of CD34^+ cells, valproic acid (VPA), trichostatin A (TSA), nicotinic acid (NA), suberoylanilide hydroxamic acid (SAHA) or 5-aza-2′-deoxycytidine (5azaD) as single agents or in combination was tested in vitro. The results of fluorescence-activated cell sorting experiments performed on cord blood-derived CD34^+/CD90^+ cells treated with CMA agents is shown in FIG. 1A.
# NOD/SCID mice = assay: NOD/SCID transplantation assay: in vivo hematopoietic reconstitution by expanded CB cells; design: species or system mouse
# Procedure: Immunodeficient nonobese diabetic/ltsz-scid/scid (NOD/SCID) mice were purchased from Jackson Laboratories (Bar Harbor, Me.) and transplantation assays were performed as described (Araki et al., 2009, Id.; Araki et al., 2007, Id.; Taswell, 1981, Id.). Equal number of primary CD34^+ cells or the progeny of an equal initial number of CD34^+ cells following culture were injected per mouse intravenously. Mice were sacrificed 8 weeks after transplantation, and bone marrow (BM) cells from each mouse were analyzed by flow cytometry to detect multilineage human cell engraftment.
# Furthermore, hematopoietic stem cell potency of CMA-treated cord blood cells was evaluated in vivo by assaying hematopoietic repopulation potential of CD34^+ cells expanded with various CMAs. In these experiments, non-obese diabetic/severely combined immunodeficient (NOD/SCID) mice were transplanted with primary CD34^+ cells or the equivalent starting number of CD34^+ cells expanded in culture media supplemented by cytokines alone or in combination with 5azaD/TSA, VPA or 5azaD/VPA. […] Cells from cultures expanded with cytokines and VPA were capable of human hematopoietic engraftment in 2 out of 7 mice with a barely detectable level of chimerism (0.11%, 0.14%) (FIG. 2C).
# [2] = tested on: genes implicated in HSC self-renewal, differentiation, expansion and maintenance; assay: Real time quantitative PCR of gene transcripts in re-isolated expanded CD34+ cells; format: cell-based, human
# Procedure: RNA preparation and real time quantative PCR assays were performed using SYBR green dye (Life Technologies; Carlsbad, Calif.) and an ABI 7500 Fast Real-Time PCR system (Life Technologies) were used to quantitate gene expression in reverse-transcribed mRNA as described (Araki et al., 2007, Id.). Gene expression was calculated by relative quantitation, and all results were normalized to expression of GAPDH.
# To investigate whether treating cells with CMA altered gene expression, transcript levels of several genes associated with hematopoietic stem cell (HSC) self-renewal and differentiation were compared in unmanipulated primary CD34^+ cells (day 0) and CD34^+ cells expanded in the presence or absence of CMA (5azaD/TSA) during ex vivo culture. […] In the absence of 5azaD/TSA treatment, transcript levels of these genes were reduced over the course of 9 days of culture, correlating well with poor in vivo hematopoietic reconstitution capacity of untreated cells compared to unmanipulated primary or 5azaD/TSA expanded CD34^+ cells. […] In addition, transcript levels of CDK inhibitor P21, which regulates the G1/S transition of the cell cycle, was reduced in CD34^+ cells expanded in the absence of CMAs, but was not reduced in 5azaD/TSA expanded cells (p=0.06). Reduced P21 levels are generally associated with shorter G1/S transition and faster rate of cell divisions. […] This was also consistent with previous results showing membrane tracking dye as well as bromodeoxyuridine (BrdU) pulse chase assays of CD34^+CD90^+ cells during expansion culture (Araki et al., 2007, Blood 109: 3570-78).
# [3] = tested on: histone H4 acetylation of gene promoter sites; assay: Chromatin immunoprecipitation (ChIP) assay with anti-acetyl-Histone H4 antibody; format: cell-based, human; settings: FIG. 6B
# Procedure: The ChIP assay was carried out using a commercial Assay kit using the manufacturer's protocol (Millipore; Billerica, Mass.) as described (Sankar et al., 2008, Oncogene 27: 5717-5728). Briefly, after 72 hours of culture CD34^+ cells were crosslinked with formaldehyde and the cell pellet was lysed and sonicated to produce genomic fragments and immunoprecipitated using anti-acetyl-Histone H4 antibody (Millipore). Amplified PCR fragments were then analyzed on a 1.2% agarose gel.
# In order to examine whether the alteration of gene expression observed in CD34^+ cells during ex vivo expansion culture with CMA was due to changes in histone acetylation, acetylation of histone H4 was analyzed for several gene promoter sites including HoxB4, Bmi1, GATA2, PU.1, as well as GAPDH as a control. Standard chromatin immunoprecipitation (ChIP) assays were used employing an antibody specific to acetylated histone H4 as described previously (Sankar et al., 2008, Oncogene 27:5717-28). […] More promoter fragments for Bmi1, HoxB4, and GATA2, and less fragments for PU.1 were amplified in 5azaD/TSA expanded CD34^+ cells as compared to control and VPA-expanded CD34^+ cells (FIG. 6B).
compound,measurement,setting,value
"CCCC(CCC)C(=O)O [VPA, valproic acid]",cells co-expressing CD34+ and CD90+,"[1]; 9 days of culture, cytokines (SCF, Flt3-ligand, TPO, IL-3) plus CMA, FIG. 1A",42.2%
same,fold expansion of CD34+CD90+ cells,"[1]; 9 days of culture, cytokines plus CMA, FIG. 1B",64.6±3.7 fold and 65 fold
same,CD34+CD90+ (%),[1]; mean ± SEM of three independent experiments,42.17 ± 13.45 %
same,regenerative capacity (in vivo hematopoietic reconstitution function) of expanded CD34+ cells,NOD/SCID mice; Day 9 expanded CD34+ cells,possessing regenerative potential
same,multilineage differentiation of expanded cells following transplantation,NOD/SCID mice; FIG. 2D,retained the ability to differentiate into both myeloid and lymphoid lineages
same,mice with human hematopoietic engraftment of mice transplanted,"NOD/SCID mice; cells expanded with cytokines plus CMA, i.v., analysed 8 weeks after transplantation, FIG. 2C",2 out of 7
same,human hematopoietic chimerism (human CD45+ cells in mouse bone marrow),"NOD/SCID mice; engrafted recipient mice, FIG. 2C",0.11% and 0.14%
same,transcript levels of Alox5 in contrast to CD34+ cells expanded in 5azaD/TSA,[2],significantly higher
same,transcript levels of S100A8 and Alox5 in contrast to controls,"[2]; FIGS. 5A, 5B",increased
same,transcript levels of GATA1 compared with control cultures,"[2]; day 3, FIG. 3B",significantly increased
same,"histone H4 acetylation of the promoter regions of HoxB4, Bmi1 and GATA2 genes in contrast to control cultures",[3]; CD34+ cells after 72 hours of culture,Increased histone H4 acetylation
same,levels of histone H4 acetylation for Bmi1 and HoxB4 genes compared to control cultures,[3],intermediate levels
